Measured values reported in patent US11285156B2, “Substituted piperazines as KRAS G12C inhibitors” (Amgen Inc., priority 2018, dated 2022).
Read-outs that look alike come from different tables or passages of the source.

What was measured:
[1] = system: Phosphorylation of ERK1/2 in A549 cells; experiment: Phospho-ERK1/2 MSD assay in A549 cells; assay type: cell-based; conditions: Homo sapiens, A549, 2 h, read-out: p-ERK IC50 (2 h, A549; μM), 2 h compound treatment, A549 cells, EGF stimulated
How it was run: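 MSD electrochemiluminescent read-out of phospho-ERK1/2 in RIPA lysates. Cells in RPMI 1640 with 10% FBS received titrated compound for 2 or 4 h, then 10 ng/mL EGF for 10 min before ice-cold PBS wash and lysis.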

[2] = system: Phosphorylation of ERK1/2 in MIA PaCa-2 cells; experiment: Phospho-ERK1/2 MSD assay in MIA PaCa-2 cells; assay type: cell-based; conditions: read-out: p-ERK IC50 (2 h, MiaPaCa-2; μM), 2 h compound treatment, MIA PaCa-2 cells, EGF stimulated
How it was run: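 Phospho-ERK1/2 measured by MSD electrochemiluminescence kit in RIPA lysates of MIA PaCa-2 cells. Cells were treated with compound titrations for 2 or 4 h at 37 °C, 5% CO2, followed by a 10 min pulse of 10 ng/mL EGF.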

[3] = target: GDP-bound KRAS protein (aa 1-169), containing both G12C and C118A amino acid substitutions (Homo sapiens (Human), UniProt P01116, C118A/G12C); experiment: Coupled nucleotide exchange assay (SOS-mediated nucleotide exchange, AlphaScreen); assay type: biochemical; conditions: 5 min compound pre-incubation; for IC50: read-out: Coupled exchange IC50 (5 min; μM)
Sequence of GDP-bound KRAS protein (aa 1-169), containing both G12C and C118A amino acid substitutions (P01116 other isoform, or with tags, fused parts or gaps G12C/C118A): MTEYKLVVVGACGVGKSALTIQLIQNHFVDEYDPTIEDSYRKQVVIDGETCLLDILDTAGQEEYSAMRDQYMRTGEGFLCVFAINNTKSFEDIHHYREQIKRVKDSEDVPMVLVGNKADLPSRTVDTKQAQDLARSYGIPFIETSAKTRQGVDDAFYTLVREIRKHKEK
Procedure: Coupled Nucleotide Exchange Assay:
Following compound pre-incubation, purified SOS protein (aa 564-1049) and GTP (Roche 10106399001) were added to the assay wells and incubated for an additional 30 min (for 5 min compound pre-incubation) or 1 hour (for 2 hour compound pre-incubation). […] The assay plates were then read on a PerkinElmer EnVision Multilabel Reader, using AlphaScreen® technology, and data were analyzed using a 4-parameter logistic model to calculate IC50 values.

Row | Compound | IC50 [1] [µM] | IC50 ([2]; Homo sapiens, MIA PaCa-2, 2 h) [µM] | IC50 [3] [µM] | Coupled exchange IC50 (5 min; μM) [3] [µM] | IC50 [2] [µM]
1 | C=CC(=O)N1C[C@H](C)N(c2nc(=O)n(-c3c(C(C)C)ncn(C)c3=O)c3nc(-c4ccccc4F)c(Cl)cc23)C[C@H]1C [Example 103-2, 6-Chloro-4-[(2S,5R)-2,5-dimethyl-4-prop-2-enoyl-piperazin-1-yl]-7-(2-fluorophenyl)-1-(4-isopropyl-1-methyl-6-oxo-pyrimidin-5-yl)pyrido[2,3-d]pyrimidin-2-one] | > 7.5 | 0.04 | 0.084 |  | 
2 | C=CC(=O)N1C[C@H](C)N(c2nc(=O)n(-c3c(C(C)C)cccc3[S+](C)[O-])c3nc(-c4ccccc4F)c(Cl)cc23)C[C@H]1C (stereo partly drawn) [Example 103-3, 4-((2S,5R)-4-acryloyl-2,5-dimethylpiperazin-1-yl)-6-chloro-7-(2-fluorophenyl)-1-(2-isopropyl-6-(methylsulfinyl)phenyl)pyrido[2,3-d]pyrimidin-2(1H)-one] | > 7.5 | 0.143 |  | 0.677 | 
3 | C=CC(=O)N1C[C@H](C)N(c2nc(=O)n(-c3c(C(C)C)cncc3C(C)C)c3nc(-c4ccccc4F)c(Cl)cc23)C[C@H]1C [Example 103-4, 6-Chloro-1-(3,5-diisopropyl-4-pyridyl)-4-[(2S,5R)-2,5-dimethyl-4-prop-2-enoyl-piperazin-1-yl]-7-(2-fluorophenyl) pyrido[2,3-d]pyrimidin-2-one] | > 7.5 | 0.062 | 0.057 |  | 
4 | C=CC(=O)N1C[C@H](C)N(c2nc(=O)n(-c3c(N(CC)CC)ccnc3C(C)C)c3nc(-c4ccccc4C(C)C)c(Cl)cc23)C[C@H]1C [Example 103-5, 6-Chloro-1-[4-(diethylamino)-2-isopropyl-3-pyridyl]-4-[(2S,5R)-2,5-dimethyl-4-prop-2-enoyl-piperazin-1-yl]-7-(2-isopropylphenyl) pyrido[2,3-d]pyrimidin-2-one] | > 7.5 | 0.507 | 0.2 |  | 
5 | C=CC(=O)N1C[C@H](C)N(c2nc(=O)n(-c3c(N(CC)CC)ccnc3C(C)C)c3nc(-c4ccccc4C)c(Cl)cc23)C[C@H]1C [Example 103-6, 6-chloro-1-[4-(diethylamino)-2-isopropyl-3-pyridyl]-4-[(2S,5R)-2,5-dimethyl-4-prop-2-enoyl-piperazin-1-yl]-7-(o-tolyl)pyrido[2,3 d]pyrimidin-2-one] | > 7.5 | 0.474 | 0.08 |  | 
6 | C=CC(=O)N1C[C@H](C)N(c2nc(=O)n(-c3c(N(C)C)ccnc3C(C)C)c3nc(-c4ccccc4C)c(Cl)cc23)C[C@H]1C [Example 103-7, 6-Chloro-1-[4-(dimethylamino)-2-isopropyl-3-pvridyl]-4-[(2S,5R)-2,5-dimethyl-4-prop-2-enoyl-piperazin-1-yl]-7-(o-tolyl)pyrido[2,3-d]pyrimidin-2-one] | 3.75 |  | 0.143 |  | 0.128
7 | C=CC(=O)N1C[C@H](C)N(c2nc(=O)n(-c3c(C(C)C)nc(Br)nc3C(C)C)c3nc(-c4ccccc4F)c(Cl)cc23)C[C@H]1C [Example 106-1, 4-((2S,5R)-4-Acryloyl-2,5-dimethylpiperazin-1-yl)-1-(2-bromo-4,6-diisopropylpyrimidin-5-yl)-6-chloro-7-(2-fluorophenyl)pyrido[2,3-d]pyrimidin-2(1H)-one] | 4.54 | 0.096 | 0.08 |  | 
8 | C=CC(=O)N1CCN(c2nc(=O)n(CC(C)(C)C)c3nc(-c4ccccc4F)c(Cl)cc23)[C@@H](C)C1 [Example 106-2, 6-Chloro-1-(2,2-dimethylpropyl)-7-(2-fluorophenyl)-4-[(2S)-2-methyl-4-prop-2-enoyl-piperazin-1-yl]pyrido[2,3-d]pyrimidin-2-one] | > 7.5 | 5.31 | 1.01 |  | 
9 | C=CC(=O)N1CCN(c2nc(=O)n(CC(C)(C)C)c3nc(-c4ccccc4F)c(Cl)cc23)C[C@@H]1CO [Example 106-3, 6-Chloro-1-(2,2-dimethylpropyl)-7-(2-fluorophenyl)-4-[(3R)-3-(hydroxymethyl)-4-prop-2-enoyl-piperazin-1-yl]pyrido[2,3-d]pyrimidin-2-one] | > 7.5 | 10 | 8.34 |  | 
10 | C=CC(=O)N1C[C@H](C)N(c2nc(=O)n(CC(C)(C)OC)c3nc(-c4ccccc4F)c(Cl)cc23)C[C@H]1C [Example 106-4, 6-Chloro-4-[(2S,5R)-2,5-dimethyl-4-prop-2-enoyl-piperazin-1-yl]-7-(2-fluorophenyl)-1-(2-methoxy-2-methyl-propyl)pyrido[2,3-d]pyrimidin-2-one] | > 7.5 | 2.45 | 5.04 |  | 
11 | C=CC(=O)N1CCN(c2nc(=O)n(CC(C)(C)OC)c3nc(-c4ccccc4F)c(Cl)cc23)CC1 [Example 106-5, 6-Chloro-7-(2-fluorophenyl)-1-(2-methoxy-2-methyl-propyl)-4-(4-prop-2-enoylpiperazin-1-yl)pyrido[2,3-d]pyrimidin-2-one] | > 7.5 | 1.46 | 6.13 |  | 
12 | C=CC(=O)N1C[C@@H](C)N(c2nc(=O)n(-c3c(C)ccnc3C(C)C)c3nc(-c4ccccc4F)c(Cl)nc23)[C@@H](C)C1 [Example 106-7-2, 6-Chloro-4-[(2R,6S)-2,6-dimethyl-4-prop-2-enoyl-piperazin-1-yl]-7-(2-fluorophenyl)-1-(2-isopropyl-4-methyl-3-pyridyl)pteridin-2-one] | > 7.5 | 0.271 | 0.129 |  | 
13 | C=CC(=O)N1C[C@H](C)N(c2nc(=O)n(CC(C)(C)C#N)c3nc(-c4ccccc4F)c(Cl)cc23)C[C@H]1C [Example 106-8, 3-[6-Chloro-4-[(2S,5R)-2,5-dimethyl-4-prop-2-enoyl-piperazin-1-yl]-7-(2-fluorophenyl)-2-oxo-pyrido[2,3-d]pyrimidin-1-yl]-2,2-dimethyl-propanenitrile] | > 7.5 | 1.88 | 3.35 |  | 
14 | C=CC(=O)N1CCN(c2nc(=O)n(CC(C)(C)C#N)c3nc(-c4ccccc4F)c(Cl)cc23)[C@@H](C)C1 [Example 106-9, 3-[6-Chloro-7-(2-fluorophenyl)-4-[(2S)-2-methyl-4-prop-2-enoyl-piperazin-1-yl]-2-oxo-pyrido[2,3-d]pyrimidin-1-yl]-2,2-dimethyl-propanenitrile] | > 7.5 | 2.24 | 3.7 |  | 
15 | C=CC(=O)N1C[C@H](C)N(c2nc(=O)n(-c3c(C(C)C)nc(NC)nc3C(C)C)c3nc(-c4ccccc4F)c(Cl)cc23)C[C@H]1C [Example 107-1, 4-((2S,5R)-4-Acryloyl-2,5-dimethylpiperazin-1-yl)-6-chloro-1-(4,6-diisopropyl-2-(methylamino)pyrimidin-5-yl)-7-(2-fluorophenyl)pyrido[2,3-d]pyrimidin-2(1H)-one] | 5.57 | 0.064 | 0.026 |  | 
16 | C=CC(=O)N1C[C@H](C)N(c2nc(=O)n(-c3c(C(C)C)nc(N(C)C)nc3C(C)C)c3nc(-c4ccccc4F)c(Cl)cc23)C[C@H]1C [Example 107-2, 6-Chloro-1-[2-(dimethylamino)-4,6-diisopropyl-pyrimidin-5-yl]-4-[(2S,5R)-2,5-dimethyl-4-prop-2-enoyl-piperazin-1-yl]-7-(2-fluorophenyl)pyrido [2,3-d]pyrimidin-2-one] | 1.25 | 0.299 | 0.098 |  | 
17 | C=CC(=O)N1C[C@H](C)N(c2nc(=O)n(-c3c(C(C)C)nc(N4CCOCC4)nc3C(C)C)c3nc(-c4ccccc4F)c(Cl)cc23)C[C@H]1C [Example 107-3, 6-Chloro-1-(4,6-diisopropyl-2-morpholino-pyrimidin-5-yl)-4-[(2S,5R)-2,5-dimethyl-4-prop-2-enoyl-piperazin-1-yl]-7-(2-fluorophenyl)pyrido [2,3-d]pyrimidin-2-one] | 3.73 | 0.144 | 0.114 |  | 
18 | C=CC(=O)N1C[C@H](C)N(c2nc(=O)n(-c3c(C(C)C)nc(NCCN(C)C)nc3C(C)C)c3nc(-c4ccccc4F)c(Cl)cc23)C[C@H]1C [Example 107-4, 6-Chloro-1-[2-[2-(dimethylamino)ethylamino]-4,6-diisopropyl-pyrimidin-5-yl]-4-[(2S,5R)-2,5-dimethyl-4-prop-2-enoyl-piperazin-1-yl]-7-(2-fluorophenyl)pyrido [2,3-d]pyrimidin-2-one] | > 7.5 | 0.085 | 0.051 |  | 
19 | C=CC(=O)N1C[C@H](C)N(c2nc(=O)n(-c3c(C(C)C)nc(N4CCC4)nc3C(C)C)c3nc(-c4ccccc4F)c(Cl)cc23)C[C@H]1C [Example 107-5, 1-[2-(Azetidin-1-yl)-4,6-diisopropyl-pyrimidin-5-yl]-6-chloro-4-[(2S,5R)-2,5-dimethyl-4-prop-2-enoyl-piperazin-1-yl]-7-(2-fluorophenyl)pyrido [2,3-d]pyrimidin-2-one] | 3.25 | 0.3 | 0.103 |  | 
20 | C=CC(=O)N1C[C@H](C)N(c2nc(=O)n(-c3c(C(C)C)ncnc3C3CC3)c3nc(-c4ccccc4F)c(Cl)cc23)C[C@H]1C [Example 108-1, 4-((2S,5R)-4-Acryloyl-2,5-dimethylpiperazin-1-yl)-6-chloro-1-(4-cyclopropyl-6-isopropylpyrimidin-5-yl)-7-(2-fluorophenyl)pyrido[2,3-d]pyrimidin-2(1H)-one] | > 7.5 |  | 0.009 |  | 0.039
